Source: US20130178536A1, “SUBSTITUTED CIS- AND TRANS-STILBENES AS THERAPEUTIC AGENTS” (STC.UNM, priority 2006, published 2013)

Tests used:
Format in all cases: in vivo, mouse
[1] = system: Aβ plaques; experiment: Areal density of Aβ plaques in brains of AD transgenic mice (Thioflavin-S histology); conditions: for Plaque areal density: 100 ppm in diet, 1 year, mean±S.E.M., p<0.001, untreated 79.8±2.4; for Decrease in plaque areal density: vs untreated transgenic mice
Text: (§1) B6C3 transgenics (Jackson Laboratory) were used. These double transgenic mice express a chimeric mouse/human amyloid precursor protein (Mo/HuAPP695swe) and a mutant human presenilin 1 (PS1-dE9) both directed to CNS neurons. Both mutations are associated with early-onset Alzheimer's disease. The “humanized” Mo/HuAPP695swe transgene allows the mice to secrete a human Ab peptide. The included Swedish mutations (K595N/M596L) elevate the amount of Ab produced from the transgene by favoring processing through the beta-secretase pathway. Transgenic mice develop beta-amyloid deposits in brain by six to seven months of age. These animals also display a slight alteration in their tail phenotype that is believed to be due to the mixed genetic background of the strain and is not related to transgene expression. These mice are useful in studies of neurological disorders of the brain, specifically Alzheimer's disease, amyloid plaque formation.
(§2) Female B6C3 transgenics were used. Animals were housed 5/cage and fed ad libitum. Groups included controls, RV groups, compound 1 groups and compound 2 groups. Each group was comprised of 15 animals. Diets contained standard dyes to provide different colors to each diet to avoid confusion during the 12 months feeding.
(§3) Transgenic mice carrying mutated APP and presenilin-1 were fed this diet. It was observed early on that compound 2a (4cc) was toxic. Therefore, it was discontinued in the study. […] Twenty four hrs before sacrifice, SPIONs were injected via the tail vein. […] The MRI conspicuity of the plaques increased from a Z-score (signal to noise ratio) of 4.6±0.6 to 8.0±0.1 when the plaque Z-score was compared in control AD mice with AD mice treated with nanoparticles. The number of MRI-visible plaques per brain increased from 355±39 in the control AD mice, to 668±52 in the SPION treated mice.
Paraffin embedded brain sections were rehydrated by progressively immersing them in Hemo-De, 95% EtOH, 70% EtOH and finally 0.1M PBS. […] Images were taken with a Zeiss Axioskop 2 equipped with a Zeiss AxioCam and a Prior Lumen 200 fluorescence lamp (Cancer Center Fluorescence Microscopy Facility, University of New Mexico, Albuquerque, N. Mex., USA, http://hsc.unm.edu/crtc/microscopy/). […]
(§4) Plaque number and area were measured on the CCD images of the IHC brain sections with the aid of ImageJ software (NIH) by thresholding and conversion of the images to binary images. The radial sizes of the plaques were measured using ImageJ on Thioflavin-S stained fluorescence micrographs of brain sections. The radial distributions of activated microglia were measured on spatially calibrated fluorescence micrographs of Iba-1 stained brain sections using the center of the plaque as the local point of reference and the center of the DAPI-stained microglial nucleus as the endpoint. […]

[2] = system: activated microglia; experiment: Activated microglia density and radial distribution in brains of AD transgenic mice (Iba-1 staining); conditions: for Areal density of activated microglia: 100 ppm in diet, 1 year, mean±S.E.M., p<0.001, untreated 86.1±2.8; for Decrease in areal density of activated microglia: vs untreated transgenic mice
Text: as §1, §2, §3
Paraffin embedded brain sections were rehydrated by progressively immersing them in Hemo-De, 95% EtOH, 70% EtOH and finally 0.1M PBS. Antigens were retrieved by placing the slides in 6.0 pH 0.01 M sodium citrate buffer with heating to 90° C. for 20 minutes. After cooling to r.t., the slides were stained with Thioflavin-S as above. After rehydrating with 0.1M PBS for 5 minutes, the slides were blocked with 0.1M PBS containing 6% normal donkey serum for 45 minutes and then incubated overnight with rabbit anti-Iba-1, diluted 1:400, at 4° C. in a humidity chamber. The next day the slides were washed three times with 0.1M PBS. The secondary antibody, rhodamine-conjugated donkey anti-rabbit IgG, was diluted with 0.5% BSA in 0.1M PBS to 1:200 under light-restricted conditions. 100 μl of this secondary antibody solution was applied to each brain slice for 2 h in a light-tight container at r.t. The slides were then rinsed three times with 0.1M PBS and twice with dd water. Vectashield with DAPI was applied and the slides were cover-slipped and sealed for imaging. Images were taken with a Zeiss Axioskop 2 equipped with a Zeiss AxioCam and a Prior Lumen 200 fluorescence lamp (Cancer Center Fluorescence Microscopy Facility, University of New Mexico, Albuquerque, N. Mex., USA, http://hsc.unm.edu/crtc/microscopy/). Images were processed using Slidebook (Denver, Colo.). Confocal images were taken and processed using Zen (Carl Zeiss MicroImaging GmbH, Germany).
as §4

[3] = system: Aβ plaques; experiment: MRI-detected plaques in brains of AD transgenic mice with anti-APP SPIONs; conditions: for Decline in number of plaques per brain: 100 ppm in diet, 1 year, MRI
Text: as §1, §2
Transgenic mice carrying mutated APP and presenilin-1 were fed this diet. It was observed early on that compound 2a (4cc) was toxic. Therefore, it was discontinued in the study. […] Twenty four hrs before sacrifice, SPIONs were injected via the tail vein. […]
Pilot MRI studies of this line of transgenic mice were carried out at three magnetic field strengths: at 4.7 Tesla, at the UNM BRaIN Imaging Center, and at 9.4 and 16.4 Tesla at the Center for Magnetic Resonance Research at the University of Minnesota. […] One hundred ninety two MRI slices were analyzed by counting plaques in each slice, and by computing the statistical significance of the intensity in the hypointense plaque core versus the noise level in the surrounding tissue. […]

Structure (SMILES) | Plaque areal density [1] [plaques/mm^2] | Decrease in plaque areal density [1] [%] | Proximal halo of microglia around plaques [2] [µm] | Areal density of activated microglia [2] [microglia/mm^2] | Decrease in areal density of activated microglia [2] [%] | Decline in number of plaques per brain [3] | Total number of MRI-determined plaques ([3]; fed over entire life span, anti-APP SPIONs for 24 hours, SPION control n=668)
Oc1ccc(/C=C/c2cc(O)cc(O)c2)cc1 [Resveratrol, reference compound] | 51.8±2.4 | 35 | 17 | 34.7±1.8 | 60 | 3-6 fold | 
COc1ccc(/C=C/c2ccccc2F)cc1 [1a (LD-55)] | 55.4±4.8 | 31 | 24 | 44.2±3.2 | 49 | 3-6 fold | 209
